Test results as given in patent US11318134B2, “Benzamide compounds” (priority 2018, dated 2022).
Where two headings read alike, the source gives them in different places.

Experiments:
Bcl-2 [1] = molecular target: T1, Bcl-2 (Homo sapiens (Human), UniProt P10415); assay: Bcl-2 HTRF assay (FAM-Bak peptide); type: binding; details: read-out: Bc1-2 IC50
RS4;11 cells = assay: RS4;11 cell proliferation assay (CellTiter-Glo); type: cell-based; details: Homo sapiens, RS4-11, 48 h, read-out: RS4;11 (nM), CTG IC50
Method: (§1) Cell proliferation was measured using the CellTiter-Glo® Luminescent Cell Viability Assay. The assay involved the addition of a single reagent (CellTiter-Glo® Reagent) directly to cells cultured in serum-supplemented medium.
(§2) Each compound evaluated was prepared as a DMSO stock solution (10 mM). Compounds were tested in duplicate on each plate, with a 10-point serial dilution curve (1:3 dilution). Compound treatment (1.0 μL) was added from the compound dilution plate to the cell plate. The highest compound concentration was 10 μM (final), with a 0.1% final DMSO concentration. Plates were then incubated at 37° C., 5% CO2. After 48 h of compound treatment for RS4;11 or 72 h for NCI-H1963, cell plates were equilibrated at rt for approximately 30 mins. An equi-volume amount of CellTiter-Glo® Reagent (40 μL) was added to each well. […] Luminescence was recorded using a Envision plate reader according to CellTiter-Glo protocol. IC50 of each compound was calculated using GraphPad Prism by nonlinear regression analysis.

NCI-H1963 cells = assay: NCI-H1963 cell proliferation assay (CellTiter-Glo); type: cell-based; details: Homo sapiens, NCI-H1963, 72 h, read-out: H1963 (nM), CTG IC50
Method: as §1, §2

Bcl-XL [2] = molecular target: T2, Bcl-XL (Homo sapiens (Human), UniProt Q07817); assay: Bcl-XL HTRF assay (FAM-Bad peptide); type: binding; details: read-out: Bc1-XL IC50
Bcl-2 [3] = molecular target: T1, Bcl-2; assay: Bcl-2 protein family binding assay (Bcl2scan platform), Bcl-2; details: BIM peptide ligand, 11-point dilution, read-out: Bc1-2 Kd (nm)
Method: (§3) E. coli were grown to log-phase and infected with T7 phage from a frozen stock (multiplicity of infection=0.4) and incubated with shaking at 32° C. until lysis (90-150 minutes). The lysates were centrifuged (5,000×g) and filtered (0.2 μm) to remove cell debris. […] The liganded beads were blocked with excess biotin and washed with blocking buffer (SeaBlock (Pierce), 1% BSA, 0.05% Tween 20, 1 mM DTT) to remove unbound ligand and to reduce non-specific phage binding. […] Test compounds were prepared as 100× stocks in 100% DMSO. Kds were determined using an 11-point 3-fold compound dilution series with one DMSO control point. […] The compounds were then diluted directly into the assays such that the final concentration of DMSO was 0.9%. All reactions performed in polypropylene 384-well plates. Each was a final volume of 0.02 ml. […] The BCL2 concentration in the eluates was measured by qPCR. Binding constants (Kds) were calculated with a standard dose-response curve using the Hill equation:
(§4) [formula] The Hill Slope was set to −1. Curves were fitted using a non-linear least square fit with the Levenberg-Marquardt algorithm.

Bcl-XL [4] = molecular target: T2, Bcl-XL; assay: Bcl-2 protein family binding assay (Bcl2scan platform), Bcl-XL; details: BIM peptide ligand, 11-point dilution, read-out: Bc1-XL Kd (nm)
Method: as §3, §4

[5] = HTRF, 4 nM Bcl-2, 100 nM FAM-Bak peptide
[6] = HTRF, 3 nM Bcl-XL, 40 nM FAM-Bad peptide

T2 sequence (Q07817 whole entry): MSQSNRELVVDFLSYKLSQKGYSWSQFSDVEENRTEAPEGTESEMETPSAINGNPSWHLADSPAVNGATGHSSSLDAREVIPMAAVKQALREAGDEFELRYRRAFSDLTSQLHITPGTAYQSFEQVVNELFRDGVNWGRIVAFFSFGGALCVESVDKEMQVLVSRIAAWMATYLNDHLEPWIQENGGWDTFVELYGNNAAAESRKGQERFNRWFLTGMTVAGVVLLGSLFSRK
T1 sequence (P10415 whole entry): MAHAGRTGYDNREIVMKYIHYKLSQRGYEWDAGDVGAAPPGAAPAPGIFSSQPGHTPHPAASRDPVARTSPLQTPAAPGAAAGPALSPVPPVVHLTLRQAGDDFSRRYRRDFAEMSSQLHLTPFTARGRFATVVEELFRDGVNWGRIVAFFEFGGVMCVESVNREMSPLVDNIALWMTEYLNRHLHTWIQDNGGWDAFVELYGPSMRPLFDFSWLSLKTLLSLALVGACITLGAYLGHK

| Compound | IC50 (Bcl-2 [1]; [5]) [nM] | IC50 (RS4;11 cells) [nM] | IC50 (NCI-H1963 cells) [nM] | IC50 (Bcl-XL [2]; [6]) [nM] | Kd (Bcl-2 [3]) [nM] | Kd (Bcl-XL [4]) [nM] | IC50 (Bcl-2 [1]) [nM] | IC50 (Bcl-XL [2]) [nM] |
| --- | --- | --- | --- | --- | --- | --- | --- | --- |
| CCN(CCO)CC[C@H](CSc1ccccc1)Nc1ccc(S(=O)(=O)NC(=O)c2ccc(N3CCN(CC4=C(C56CC(C(F)F)(C5)C6)CC(C)(C)CC4)CC3)cc2)cc1S(=O)(=O)C(F)(F)F [Example 70, (R)-4-(4-((2-(3-(difluoromethyl)bicyclo[1.1.1]pentan-1-yl)-4,4-dimethylcyclohex-1-en-1-yl)methyl)piperazin-1-yl)-N-((4-((4-(ethyl(2-hydroxyethyl)amino)-1-(phenylthio)butan-2-yl)amino)-3-((trifluoromethyl)sulfonyl)phenyl)sulfonyl)benzamide] | ≤ 10 | 100 to 1000 | > 1000 | ≤ 10 | – | – | – | – |
| CC1(C)CCC(CN2CCN(c3ccc(C(=O)NS(=O)(=O)c4ccc(NC[C@H]5CC[C@](C)(O)CC5)c([N+](=O)[O-])c4)c(Oc4cnc5[nH]ccc5c4)c3)CC2)=C(C23CC(C)(C2)C3)C1 [Example 20, 2-(1H-pyrrolo[2,3-b]pyridin-5-yloxy)-4-(4-((4,4-dimethyl-2-(3-methylbicyclo[1.1.1]pentan-1-yl)cyclohex-1-enyl)methyl)piperazin-1-yl)-N-(4-(((1r,4r)-4-hydroxy-4-methylcyclohexyl)methylamino)-3-nitrophenylsulfonyl)benzamide] | ≤ 10 | < 100 | – | ≥ 100 | < 10 | > 100 | – | – |
| CCC12CC(C3=C(CN4CCN(c5ccc(C(=O)NS(=O)(=O)c6ccc(N[C@H](CCN(C)CCO)CSc7ccccc7)c(S(=O)(=O)C(F)(F)F)c6)cc5)CC4)CCC(C)(C)C3)(C1)C2 [Example 50, (R)-4-(4-((2-(3-Ethylbicyclo[1.1.1]pentan-1-yl)-4,4-dimethylcyclohex-1-en-1-yl)methyl)piperazin-1-yl)-N-((4-((4-((2-hydroxyethyl)(methyl)amino)-1-(phenylthio)butan-2-yl)amino)-3-((trifluoromethyl)sulfonyl)phenyl)sulfonyl)benzamide] | ≤ 10 | 100 to 1000 | – | ≤ 10 | – | – | – | – |
| CN(CCO)CC[C@H](CSc1ccccc1)Nc1ccc(S(=O)(=O)NC(=O)c2ccc(N3CCN(CC4=C(C56CC(C)(C5)C6)CC(C)(C)CC4)CC3)cc2)cc1S(=O)(=O)C(F)(F)F [Example 49, (R)-4-(4-((4,4-dimethyl-2-(3-methylbicyclo[1.1.1]pentan-1-yl)cyclohex-1-en-1-yl)methyl)piperazin-1-yl)-N-((4-((4-((2-hydroxyethyl)(methyl)amino)-1-(phenylthio)butan-2-yl)amino)-3-((trifluoromethyl)sulfonyl)phenyl)sulfonyl)benzamide] | ≤ 10 | 100 to 1000 | – | ≤ 10 | – | – | – | – |
| CC1(C)CCC(C23CC(C)(C2)C3)=C(CN2CCN(c3ccc(C(=O)NS(=O)(=O)c4ccc(N[C@H](CCN5CCC(O)CC5)CSc5ccccc5)c(S(=O)(=O)C(F)(F)F)c4)cc3)CC2)C1 [Example 48, (R)-4-(4-((5,5-dimethyl-2-(3-methylbicyclo[1.1.1]pentan-1-yl)cyclohex-1-enyl)methyl)piperazin-1-yl)-N-(4-(4-(4-hydroxypiperidin-1-yl)-1-(phenylthio)butan-2-ylamino)-3-(trifluoromethylsulfonyl)phenylsulfonyl)benzamide] | – | 100 to 1000 | – | – | 10 to 100 | 10 to 100 | < 10 | < 10 |
| CC1(C)CCC(C23CC(Cl)(C2)C3)=C(CN2CCN(c3ccc(C(=O)NS(=O)(=O)c4ccc(N[C@H](CCN5CCC(O)CC5)CSc5ccccc5)c(S(=O)(=O)C(F)(F)F)c4)cc3)CC2)C1 [Example 46] | ≤ 10 | 100 to 1000 | – | ≤ 10 | – | – | – | – |
| CC1(C)CCC(CN2CCN(c3ccc(C(=O)NS(=O)(=O)c4ccc(N[C@H](CCN5CCN(CCO)CC5)CSc5ccccc5)c(S(=O)(=O)C(F)(F)F)c4)cc3)CC2)=C(C23CC(C(F)F)(C2)C3)C1 [Example 69, (R)-4-(4-((2-(3-(difluoromethyl)bicyclo[1.1.1]pentan-1-yl)-4,4-dimethylcyclohex-1-en-1-yl)methyl)piperazin-1-yl)-N-((4-((4-(4-(2-hydroxyethyl)piperazin-1-yl)-1-(phenylthio)butan-2-yl)amino)-3-((trifluoromethyl)sulfonyl)phenyl)sulfonyl)benzamide] | ≤ 10 | – | 500 to 1000 | ≤ 10 | – | – | – | – |
| O=C(NS(=O)(=O)c1ccc(N[C@H](CCN2CCC(O)CC2)CSc2ccccc2)c(S(=O)(=O)C(F)(F)F)c1)c1ccc(N2CCN(CC3=C(C45CC(C(F)F)(C4)C5)CC4(CCC4)CC3)CC2)cc1 [Example 67, (R)-4-(4-((6-(3-(difluoromethyl)bicyclo[1.1.1]pentan-1-yl)spiro[3.5]non-6-en-7-yl)methyl)piperazin-1-yl)-N-((4-((4-(4-hydroxypiperidin-1-yl)-1-(phenylthio)butan-2-yl)amino)-3-((trifluoromethyl)sulfonyl)phenyl)sulfonyl)benzamide] | ≤ 10 | 100 to 1000 | – | ≤ 10 | – | – | – | – |
| CC1(C)CCC(CN2CCN(c3ccc(C(=O)NS(=O)(=O)c4ccc(NCC5(F)CCOCC5)c([N+](=O)[O-])c4)c(Oc4cnc5[nH]ccc5c4)c3)CC2)=C(C23CC(C)(C2)C3)C1 [Example 15, 2-(1H-pyrrolo[2,3-b]pyridin-5-yloxy)-4-(4-((4,4-dimethyl-2-(3-methylbicyclo[1.1.1]pentan-1-yl)cyclohex-1-enyl)methyl)piperazin-1-yl)-N-(4-((4-fluorotetrahydro-2H-pyran-4-yl)methylamino)-3-nitrophenylsulfonyl)benzamide] | ≤ 10 | < 100 | – | ≥ 100 | < 10 | > 100 | – | – |
| CC1(C)CCC(CN2CCN(c3ccc(C(=O)NS(=O)(=O)c4ccc(NC[C@H]5CC[C@](C)(O)CC5)c([N+](=O)[O-])c4)c(Oc4cnc5[nH]ccc5c4)c3)CC2)=C(C23CC(C(F)F)(C2)C3)C1 [Example 34, 2-((1H-pyrrolo[2,3-b]pyridin-5-yl)oxy)-4-(4-((2-(3-(difluoromethyl)bicyclo[1.1.1]pentan-1l-yl)-4,4-dimethylcyclohex-1-en-1-yl)methyl)piperazin-1-yl)-N-((4-((((1r,4r)-4-hydroxy-4-methylcyclohexyl)methyl)amino)-3-nitrophenyl)sulfonyl)benzamide] | ≤ 10 | < 100 | – | 10 to 100 | < 10 | > 100 | – | – |
| CC1(C)CCC(CN2CCN(c3ccc(C(=O)NS(=O)(=O)c4ccc(N[C@H](CCN5CCOCC5)CSc5ccccc5)c([N+](=O)[O-])c4)cc3)CC2)=C(C23CC(C(F)F)(C2)C3)C1 [Example 58, (R)-4-(4-((2-(3-(difluoromethyl)bicyclo[1.1.1]pentan-1-yl)-4,4-dimethylcyclohex-1-en-1-yl)methyl)piperazin-1-yl)-N-((4-((4-morpholino-1-(phenylthio)butan-2-yl)amino)-3-nitrophenyl)sulfonyl)benzamide] | ≤ 10 | 100 to 1000 | – | ≤ 10 | – | – | – | – |
| CC1(C)CCC(CN2CCN(c3ccc(C(=O)NS(=O)(=O)c4ccc(N[C@H](CCN5CCOCC5)CSc5ccccc5)c(S(=O)(=O)C(F)(F)F)c4)cc3)CC2)=C(C23CC(C(F)F)(C2)C3)C1 [Example 55, (R)-4-(4-((2-(3-(difluoromethyl)bicyclo[1.1.1]pentan-1-yl)-4,4-dimethylcyclohex-1-en-1-yl)methyl)piperazin-1-yl)-N-((4-((4-morpholino-1-(phenylthio)butan-2-yl)amino)-3-((trifluoromethyl)sulfonyl)phenyl)sulfonyl)benzamide] | ≤ 10 | 100 to 1000 | – | ≤ 10 | – | – | – | – |
